According to US10034462B2, “Animal model of nash-induced hepatocellular carcinoma and methods for developing specific therapeutics” (THE REGENTS OF THE UNIVERSITY OF CALIFORNIA, priority 2015, dated 2018):

What was measured:
[1] = test system: primary hepatocytes from WT and MUP-uPA mice; experiment: PA-induced lipotoxic cell death in primary hepatocytes (Cell Counting Kit-8 cell viability); format: cell-based; conditions: for PA-induced cell death (cell viability): 300 μM PA for 24 hr with 500 μM TUDCA or 1 mM 4-PBA, WT and MUP-uPA hepatocytes
Protocol: (§1) Cell viability was assessed using Cell Counting Kit-8 assay. Data are means±S.D. of triplicate wells. *p<0.05. […] CHOP expression, SREBP1 maturation, and JNK phosphorylation were assessed by IB. FIGS. 4C-4D show the effect of GRP78 overexpression. MUP-uPA hepatocytes were infected with adenoviruses encoding LacZ or GRP78 and then incubated with PA. SREBP1 maturation (FIG. 4C) and cell viability (FIG. 4D) were assessed as above. […] Data are means±S.D. of triplicate wells. *p<0.05. FIGS. 4F-4I show the effect of TUDCA on NASH in HFD-fed MUP-uPA mice. 16 week old HFD-fed MUP-uPA mice were i.p. injected with TUDCA (250 mg/kg) or vehicle, and after 4 weeks of daily treatment, liver histology (scale bar=100 μm) (FIG. 4F), serum ALT (FIG. 4G), liver TG (FIG. 4H) and liver cholesterol (FIG. 4I) were evaluated. Bar graphs are means±S.D. (n=5 per group). *p<0.05. See also FIGS. 11A-11M.
To examine whether ER stress enhances lipotoxicity in MUP-uPA hepatocytes, we incubated WT and MUP-uPA hepatocytes with PA.

HFD-fed MUP-uPA mice = experiment: Effect of TUDCA on NASH in HFD-fed MUP-uPA mice; format: in vivo, mouse
Protocol: as §1, with “FIGS. 4A-4I are pictorial and graphical diagrams showing that chemical chaperons attenuate lipotoxicity and liver damage in MUP-uPA mice. […] Cell viability” for “Cell viability”
FIGS. 11A-11M are pictorial and graphical diagrams showing the effects of TUDCA and GRP78 overexpression and CHOP ablation on NASH and HCC development. FIGS. 11A and 11B show cell death and ROS accumulation in livers of TUDCA- or vehicle-treated HFD-fed MUP-uPA mice were examined by TUNEL (FIG. 11A) and DHE staining (FIG. 11B), respectively (scale bar=100 μm). […] CHOP protein expression in whole liver and mature SREBP1 in the nuclear fraction were examined by IB analysis. Shown are three individual livers per condition. FIGS. 11D and 11E show the effects of GRP78 overexpression. HFD-fed MUP-uPA mice were intravenously injected with 1×10^9 pfu of Ad-LacZ or Ad-GRP78. After 6 days the mice (n=6 per group) were sacrificed and hepatic steatosis was analyzed by H&E staining (scale bar=100 μm) (FIG. 11D) and GRP78 expression was determined by IB analysis (FIG. 11E). […] Data are means±S.D. (n=3 per group). […] FIGS. 11H-11K show the effect of hepatocyte CHOP ablation on tumor development and severity of NASH in HFD-fed MUP-uPA mice at 40 weeks of age. […] Results are means±S.E.M. (Chop^F/F/MUP-uPA, n=17; Chop^Δhep/MUP-uPA, n=11). *p<0.05. […] Data are means±S.D. (n=5-6 per group).
FIGS. 12A-12F are pictorial and graphical diagrams showing characteristics of Tnfr1^−/−/MUP-uPA mice. FIGS. 12A and 12B show the effect of 4 weeks TUDCA treatment on HFD-fed MUP-uPA mouse liver. IHC of F4/80 (scale bar=100 μm) (FIG. 12A) and TNF mRNA expression (FIG. 12B). Data are means±S.D. (n=5 per group). *p<0.05. […] Data are presented as means±S.D. (n=3 per group). […] Data are presented as means±S.D. (n=5 per group). […] Results are shown as means±S.D.
Hepatic lipids were extracted with chloroform/methanol (2:1 v/v), and TG and total cholesterol contents were measured with Triglyceride Reagent Set (Pointe Scientific) and Cholesterol E (Wako), respectively. FA composition was analyzed by gas-chromatography at SRL Inc., Tokyo, Japan.
Livers were fixed in 10% neutral-buffered formalin or 4% paraformaldehyde, embedded in paraffin, sectioned, and stained with hematoxylin and eosin (H&E), Sirius Red, and processed for IHC. For frozen block preparation, tissue was embedded in Tissue-Tek OCT compound (Sakura Finetek). IHC and IF analyses were described (He et al., 2013). Stained areas were quantitated with Image J software. Slides were incubated with primary antibodies, followed by secondary antibodies labeled with Alexa488 or Alexa594 (Molecular Probes). TUNEL staining was performed using an Apoalert DNA Fragmentation Assay kit (Clontech). Accumulation of superoxide anions was examined by DHE staining (Sakurai et al., 2008). Tissue sample preparation and EM analysis were described (Lee et al., 2012).
We examined the effect of TUDCA on NASH development. We initiated daily i.p. injections of TUDCA (250 mg/kg) or phosphate-buffered saline (PBS; vehicle control) to HFD-fed MUP-uPA mice at 16 weeks of age. […]

[2] = test system: WT HcPC-transplanted MUP-uPA mice; experiment: Effect of TNF antagonist on HFD-induced acceleration of tumor growth in HcPC-transplanted MUP-uPA mice; format: in vivo, mouse; conditions: HFD for 5 months; 5 mg/kg i.p. three times a week during the last 7 weeks, vs vehicle
Source text: FIGS. 13A-13J are pictorial and graphical diagrams showing analyses of HcPC transplanted MUP-uPA mice. […] Data are means±S.D. (n=3 per group). […] FIGS. 13C-13F show no differences in the severity of NASH and TNF expression in the background liver of MUP-uPA mice transplanted with either WT and Tnfr1^−/− HcPC. Body weight (FIG. 13C), serum ALT (FIG. 13D), expression of TNF mRNA in non-tumor tissues (FIG. 13E), liver steatosis (FIG. 13F) and fibrosis (FIG. 13G) in MUP-uPA mice transplanted with either WT or Tnfr1^−/− HcPC and kept on LFD or HFD are shown (scale bar=100 μm). Data are expressed as means±S.D. (n=10-11 per group). *p<0.05. […] 5 mg/kg etanercept or vehicle control was i.p. injected three times a week during the last 7 weeks. Representative images of livers and maximal tumor sizes are shown. Data are expressed as means±S.E.M. (control, n=10; etanercept, n=12). […] HcPC-transplanted Tnfr1^−/−/MUP-uPA mice were divided into two groups that were fed with either LFD or HFD, and 5 months later tumorigenesis was assessed. Representative images of livers and maximal tumor sizes are shown. Data are expressed as means±S.E.M. (n=10 per group).
DEN (Sigma) was i.p. injected into male mice (25 mg/kg) on postnatal day 14. After 5 months, HcPCs were isolated as described and transplanted into 4 weeks old MUP-uPA (He et al., 2013). […]

[3] = test system: primary hepatocytes from WT and MUP-uPA mice; experiment: Immunoblot of CHOP expression, SREBP1 maturation and JNK phosphorylation in PA-treated primary hepatocytes; format: cell-based, mouse
Protocol: as §1, with “FIGS. 4A-4I are pictorial and graphical diagrams showing that chemical chaperons attenuate lipotoxicity and liver damage in MUP-uPA mice. […] Cell viability” for “Cell viability”
Primary hepatocytes were isolated (He et al., 2013) and cultured in William's E medium with 10% FBS on collagen-coated plates. PA (Sigma) was dissolved in ethanol at 50° C. and then diluted in bovine serum albumin-containing RPMI-1640 medium that was applied to primary hepatocytes at a final concentration of 200 (to analyze signal transduction) or 300 (to analyze cell death) μM.
Immunoblotting and real-time Q-PCR were described (Maeda et al., 2005). Antibodies used were against: phospho-ERK, ERK1/2, phospho STAT3, STAT3, phospho-JNK, JNK1/2, phospho-S6, S6, p65, cyclinD1, YAP (all from Cell Signaling); K19, GRP78, SREBP1, CHOP, CCL7, TNFR1 (all from Santa Cruz Biotechnology); phospho-eIF2α (Upstate); tubulin (Sigma); F4/80 (Molecular Probes); Ki67 (Gene Tex); AFP (Biocare Medical); TNF (R&D Systems); B220 (BD Pharmingen). TUDCA and 4-PBA were from Calbiochem and Sigma, respectively. GSH:GSSG ratio was analyzed using GSSG/GSH Quantification Kit (Dojindo).
To examine whether ER stress enhances lipotoxicity in MUP-uPA hepatocytes, we incubated WT and MUP-uPA hepatocytes with PA. […] PA increased CHOP expression and SREBP1 maturation in WT hepatocytes, but these effects were more pronounced in MUP-uPA hepatocytes, which expressed both proteins prior to PA addition (FIG. 4B). To examine the contribution of ER stress to these phenomena, we treated hepatocytes with the chemical chaperons 4-phenylbutyrate (4-PBA) and tauro-ursodeoxycholic acid (TUDCA), which reduce ER stress (Ozcan et al., 2006).

[4] = 250 mg/kg i.p. daily for 4 weeks from 16 weeks of age, vs PBS vehicle
[5] = 250 mg/kg i.p. daily for 4 weeks, vs vehicle
[6] = 200 μM PA, WT hepatocytes, more pronounced in MUP-uPA hepatocytes

Molecule: C[C@H](CCC(=O)NCCS(=O)(=O)O)[C@H]1CC[C@H]2[C@@H]3[C@@H](O)C[C@@H]4C[C@H](O)CC[C@]4(C)[C@H]3CC[C@]12C [TUDCA, tauroursodeoxycholic acid]
- PA-induced cell death (cell viability) [1]: attenuated PA-induced cell death
- hepatic TG (HFD-fed MUP-uPA mice; [4]): significantly reduced
- hepatic cholesterol (HFD-fed MUP-uPA mice; [4]): significantly reduced
- hepatocyte ballooning (liver histology) (HFD-fed MUP-uPA mice; [4]): attenuated
- hepatosteatosis (liver histology) (HFD-fed MUP-uPA mice; [4]): attenuated
- serum ALT (HFD-fed MUP-uPA mice; [4]): significantly reduced
- SREBP1 maturation in liver (IB) (HFD-fed MUP-uPA mice; 250 mg/kg i.p. daily for 4 weeks, nuclear fraction): inhibited
- ROS accumulation (DHE staining) (HFD-fed MUP-uPA mice; [5]): suppressed
- hepatocyte death (TUNEL) (HFD-fed MUP-uPA mice; [5]): suppressed
- CHOP expression in liver (IB) (HFD-fed MUP-uPA mice; 250 mg/kg i.p. daily for 4 weeks, whole liver): inhibited
- TNF expression in liver (mRNA) (HFD-fed MUP-uPA mice; 4 weeks TUDCA treatment): inhibited
- macrophage infiltration in liver (F4/80 IHC) (HFD-fed MUP-uPA mice; 4 weeks TUDCA treatment): inhibited

Molecule: Etanercept
- HCC growth (maximal tumor size) [2]: significantly suppressed

Molecule: CCCCCCCCCCCCCCCC(=O)O [PA, palmitic acid]
- lipotoxic cell death caused by PA ([1]; 300 μM PA, after 24 hrs, more extensive in MUP-uPA hepatocytes): lipotoxic cell death was seen in both WT and MUP-uPA hepatocytes
- CHOP expression caused by PA [3, 6]: increased
- SREBP1 maturation caused by PA [3, 6]: increased
- JNK activation by PA ([3]; 200 μM PA, effect restricted to WT hepatocytes): activated

Molecule: O=C(O)CCCc1ccccc1 [4-PBA, 4-phenylbutyric acid]
- PA-induced cell death (cell viability) [1]: attenuated PA-induced cell death
- CHOP induction upon PA treatment ([3]; 200 μM PA with 1 mM 4-PBA, IB): reduced
- JNK phosphorylation upon PA treatment ([3]; 200 μM PA with 1 mM 4-PBA, IB): only partially reduced
- SREBP1 maturation upon PA treatment ([3]; 200 μM PA with 1 mM 4-PBA, IB): reduced
